The experiment has as its system HeLa. Nature of the experiment: Antiproliferative activity against human HeLa cells assessed as [3H]thymidine incorporation after 72 hrs by miniaturized, improved, nucleic acid precursor incorporation assay. The experiment is classed as functional, cell-based. (In general: Uptake of a labelled nucleoside into DNA is a usual measure of proliferation.)

≈ marks a conversion by molar mass, not a printed value.

By IC50 is commonly meant the concentration that inhibits the measured activity by half. For `COC(=O)NCC(=O)CCNC(=O)C1=NO[C@]2(C=C(Br)C(OC)=C(Br)[C@@H]2O)C1`, the IC50 stood at 50 µg/mL (≈ 95.2 µM).
